In article doi:10.1101/2025.07.01.658226v1 (biorxiv, 2025):

Target: T1, SyHR (Synechocystis sp. PCC 7509, UniProt A0A9X9ZA75)
T1 sequence (A0A9X9ZA75 1-234): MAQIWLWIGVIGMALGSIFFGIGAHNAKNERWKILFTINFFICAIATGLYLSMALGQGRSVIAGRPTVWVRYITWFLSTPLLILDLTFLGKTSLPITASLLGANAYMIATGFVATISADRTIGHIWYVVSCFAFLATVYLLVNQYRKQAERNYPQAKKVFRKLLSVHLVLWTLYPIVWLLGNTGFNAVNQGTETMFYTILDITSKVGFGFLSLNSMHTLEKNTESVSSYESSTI
Assay: absorption spectral shift titration, Hill fit
Type: binding

Row | Kd | Compound
1 | 280 ± 50 µM | Cl [a, Cl^−]
2 | 110 ± 20 µM | Br [b, Br^−]
3 | 210 ± 30 µM | I [d, I^−]

Row | Compound | Kd
4 | O=[N+]([O-])O [c, NO3^−] | 6150 ± 750 µM
